This note sets out measurements from US20090203577A1 (EXELIXIS, INC., priority 2005, published 2009).

For series [1], the target named is T1, human farnesoid X receptor (Homo sapiens, UniProt Q96RI1).
T1 construct: CMX-farnesoid X receptor (full length human farnesoid X receptor); expressed in transfected cells; host or cells: CV-1 African Green Monkey Kidney cells
T1 sequence (Q96RI1 1-472 isoform Q96RI1-2): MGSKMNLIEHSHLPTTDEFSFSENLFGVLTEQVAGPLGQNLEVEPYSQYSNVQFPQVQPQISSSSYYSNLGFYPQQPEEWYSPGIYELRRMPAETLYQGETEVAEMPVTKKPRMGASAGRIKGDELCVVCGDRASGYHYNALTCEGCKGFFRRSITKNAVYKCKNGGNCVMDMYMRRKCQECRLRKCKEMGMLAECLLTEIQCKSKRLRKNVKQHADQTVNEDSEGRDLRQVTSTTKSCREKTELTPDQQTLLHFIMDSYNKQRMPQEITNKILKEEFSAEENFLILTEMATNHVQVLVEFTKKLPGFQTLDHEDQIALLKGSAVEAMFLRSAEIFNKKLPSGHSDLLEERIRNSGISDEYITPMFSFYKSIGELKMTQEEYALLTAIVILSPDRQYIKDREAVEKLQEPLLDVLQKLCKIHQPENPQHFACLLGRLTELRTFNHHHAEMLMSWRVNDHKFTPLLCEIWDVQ
T1 sequence (P19793 1-462 partner): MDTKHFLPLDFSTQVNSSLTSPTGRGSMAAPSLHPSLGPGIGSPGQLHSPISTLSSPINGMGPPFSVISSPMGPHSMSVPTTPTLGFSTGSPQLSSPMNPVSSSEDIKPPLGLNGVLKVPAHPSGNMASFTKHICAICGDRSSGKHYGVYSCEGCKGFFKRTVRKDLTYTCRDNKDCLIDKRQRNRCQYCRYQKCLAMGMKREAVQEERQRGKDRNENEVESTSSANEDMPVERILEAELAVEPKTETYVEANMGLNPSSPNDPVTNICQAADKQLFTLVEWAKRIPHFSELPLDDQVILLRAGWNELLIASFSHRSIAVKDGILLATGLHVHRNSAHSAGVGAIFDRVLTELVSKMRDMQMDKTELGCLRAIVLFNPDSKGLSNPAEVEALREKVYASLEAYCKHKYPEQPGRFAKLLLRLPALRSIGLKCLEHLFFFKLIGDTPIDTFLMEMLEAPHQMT
Kind of series: FXR in vitro assays (farnesoid X receptor/ECREx7 co-transfection assay, TR-FRET assay), Table I. The class given is cell-based. The conditions noted are these: for EC50: agonist activity, one or more of the in vitro assays, read-out: EC50; for Emax: read-out: % Efficacy. The method, boiled down: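 CV-1 monkey kidney cells transfected for an FXR/ECREx7 luciferase co-transfection reporter; luciferase read 18-20 h later in lysates. 8-point dose-response at ½-log spacing, 4 wells per point; EC50/IC50 from four-parameter Hill fit, averaged over at least 3 independent experiments.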

A short description of series [2]: physchem. The conditions noted are these: pH 7.4, aqueous buffer, kinetic from dmso stock. As for the experimental part: The kinetic solubility of test compounds in buffer was evaluated using a 96 well filtration plate format. A 500 μM assay solution in PBS, pH7.4 (or other assay buffer, as needed) was generated form a DMSO stock solution (up to 10 mM). Samples were transferred to a 96 Millipore MultiScreen HTS 96-well Filter plate (Cat# MSSLBPC10) mixed by shaking for 1.5 hours and processed by filtration prior to quantitation by HPLC-UV. Amiodarone and testosterone were used as reference controls.

≈ marks a conversion by molar mass, not a printed value.

One may read the EC50 as the concentration giving half of the maximal effect. The term kinetic solubility denotes the concentration staying in solution when a stock, usually in DMSO, is diluted into the medium.

As to `CCN1CCN(C(=O)N2C=C(C(=O)OC(C)C)c3[nH]c4ccccc4c3C(C)(C)C2)CC1` [Example 25, 1-methylethyl 3-[(4-ethylpiperazin-1-yl)carbonyl]-1,1-dimethyl-1,2,3,6-tetrahydroazepino[4,5-b]indole-5-carboxylate], in series [1], the EC50 was in the range of 10 to 100 nM and the Emax is above 100%. This molecule came in with a kinetic solubility at 1.5 h in series [2] above 10 µM.

Consider `CC(C)OC(=O)C1=CN(C(=O)N2CCNCC2)CC(C)(C)c2c1[nH]c1ccccc21` [Example 26, 1-methylethyl 1,1-dimethyl-3-(piperazin-1-ylcarbonyl)-1,2,3,6-tetrahydroazepino [4,5-b]indole-5-carboxylate], for which, in series [1], the EC50 is 1000 to 10000 nM and the Emax is above 100%. In series [2], the kinetic solubility at 1.5 h was above 10 µM.

Consider `CC(C)OC(=O)C1=CN(C(=O)N2CCC(N3CCCC3)CC2)CC(C)(C)c2c1[nH]c1ccccc21` [Example 28, 1-methylethyl 1,1-dimethyl-3[(4-pyrrolidin-1-ylpiperidin-1-yl)carbonyl]-1,2,3,6-tetrahydroazepino[4,5-b]indole-5-carboxylate], for which, in series [1], the 50% effective concentration (EC50) is 1000 to 10000 nM and the Emax was 80 to 100%. The solubility (kinetic) at 1.5 h in series [2] was above 10 µM.

For `CC(C)OC(=O)C1=CN(C(=O)N2CCN(CC3CCN(C)CC3)CC2)CC(C)(C)c2c1[nH]c1ccccc21` [Example 29, 1-methylethyl 1,1-dimethyl-3-({4-[(1-methylpiperidin-4-yl)methyl]piperazin-1-yl}carbonyl)-1,2,3,6-tetrahydroazepino [4,5-b]indole-5-carboxylate], in series [1], the EC50 lay in the range of 1000 to 10000 nM and the Emax was 40 to 60%. In series [2], this molecule returned a solubility (kinetic) at 1.5 h above 10 µM.

In the case of `CC(C)OC(=O)C1=CN(C(=O)N2CCN(C(C)C)CC2)CC(C)(C)c2c1[nH]c1ccccc21` [Example 30, 1-methylethyl 1,1-dimethyl-3-{[4-(1-methylethyl)piperazin-1-yl)carbonyl}-1,2,3,6-tetrahydroazepino[4,5-b]indole-5-carboxylate], in series [1], the EC50 lay in the range of 100 to 1000 nM and the Emax was above 100%. In series [2], this molecule displayed a solubility (kinetic) at 1.5 h above 10 µM.

On to `CCCN1CCN(C(=O)N2C=C(C(=O)OC(C)C)c3[nH]c4ccccc4c3C(C)(C)C2)CC1` [Example 31], for which, in series [1], the EC50 lay in the range of 100 to 1000 nM and the Emax is above 100%. Besides, the solubility (kinetic) at 1.5 h in series [2] lay in the range of 1 to 10 µM (≈ 0.453 to 4.53 µg/mL).

With `CCN(CC)C1CCN(C(=O)N2C=C(C(=O)OC(C)C)c3[nH]c4ccccc4c3C(C)(C)C2)CC1` [Example 33, 1-methylethyl 3-{[4-0 (diethylamino)piperidin-1-yl]carbonyl}-1,1-dimethyl-1,2,3,6-tetrahydroazepino[4,5-b]indole-5-carboxylate], in series [1], the EC50 lay within 1000 to 10000 nM and the Emax was 60 to 80%. In series [2], this molecule returned a solubility (kinetic) at 1.5 h above 10 µM.

As to `CC(C)CCC(=O)N1C=C(C(=O)OC(C)C)c2[nH]c3ccccc3c2C(C)(C)C1` [Example 34, 1-methylethyl 1,1-dimethyl-3-(4-methylpentanoyl)-1,2,3,6-tetrahydro azepino [4,5-b]indole-5-carboxylate], in series [1], the EC50 is 10 to 100 nM and the Emax is above 100%. This molecule also had a kinetic solubility at 1.5 h in series [2] above 10 µM.

As for `CC(C)OC(=O)C1=CN(C(=O)N2CCN(C)CC2)CC(C)(C)c2c1[nH]c1cc(F)ccc21` [Example 35, 1-methylethyl 8-fluoro-1,1-dimethyl-3-[(4-methylpiperazin-1-yl)carbonyl]-1,2,3,6-tetrahydroazepino[4,5-b]indole-5-carboxylate], in series [1], the EC50 lay in the range of 10 to 100 nM and the Emax was above 100%. This molecule also displayed a solubility (kinetic) at 1.5 h in series [2] above 10 µM.

On to `CCN1CCN(C(=O)N2C=C(C(=O)OC(C)C)c3[nH]c4cc(F)ccc4c3C(C)(C)C2)CC1` [Example 36, 1-methylethyl 3-[(4-ethylpiperazin-1-yl)carbonyl]-8-fluoro-1,1-dimethyl-1,2,3,6-tetrahydroazepino[4,5-b]indole-5-carboxylate], for which, in series [1], the EC50 is 10 to 100 nM and the Emax is above 100%. This molecule also registered a kinetic solubility at 1.5 h in series [2] above 10 µM.

As for `CC(C)OC(=O)C1=CN(C(=O)N2CCN(CC(=O)N3CCCC3)CC2)CC(C)(C)c2c1[nH]c1ccccc21` [Example 37, 1-methylethyl 1,1-dimethyl-3-{[4-(2-oxo-2-pyrrolidin-1-ylethyl)piperazin-1-yl]carbonyl}-1,2,3,6-tetrahydroazepino [4,5-b]indole-5-carboxylate], in series [1], the EC50 lay within 100 to 1000 nM and the Emax is above 100%. In series [2], this molecule showed a kinetic solubility at 1.5 h above 10 µM.

Regarding `CCN(CC)CCN1CCN(C(=O)N2C=C(C(=O)OC(C)C)c3[nH]c4ccccc4c3C(C)(C)C2)CC1` [Example 38, 1-methylethyl 3-({4-[2-(diethylamino)ethyl]piperazin-1-yl}carbonyl)-1,1-dimethyl-1,2,3,6-tetrahydroazepino[4,5-b]indole-5-carboxylate], in series [1], the EC50 was in the range of 1000 to 10000 nM and the Emax lay within 60 to 80%. The same molecule yielded a kinetic solubility at 1.5 h in series [2] above 10 µM.

For the molecule `CC(C)OC(=O)C1=CN(C(=O)N2CCCC(N(C)C)C2)CC(C)(C)c2c1[nH]c1ccccc21` (stereo not drawn) [Example 39, 1-methylethyl 3-{[3-(dimethylamino)piperidin-1-yl]carbonyl}-1,1-dimethyl-1,2,3,6-tetrahydroazepino[4,5-b]indole-5-carboxylate], in series [1], the EC50 lay in the range of 100 to 1000 nM and the Emax was above 100%. The molecule further had a solubility (kinetic) at 1.5 h in series [2] above 10 µM.

Regarding `CC(C)OC(=O)C1=CN(C(=O)N2CCC(N3CCN(C)CC3)CC2)CC(C)(C)c2c1[nH]c1ccccc21` [Example 41, 1-methylethyl 1,1-dimethyl-3{[4-(4-methylpiperazin-1-yl)piperidin-1-yl]carbonyl}-1,2,3,6-tetrahydroazepino [4,5-b]indole-5-carboxylate], in series [1], the EC50 lay in the range of 1000 to 10000 nM and the Emax was in the range of 40 to 60%. This molecule yielded a kinetic solubility at 1.5 h in series [2] above 10 µM.

Regarding `CC(C)OC(=O)C1=CN(C(=O)N2C[C@@H]3C[C@H]2CN3C)CC(C)(C)c2c1[nH]c1ccccc21` [Example 42, 1-methylethyl 1,1-dimethyl-3-{[(1S,4S)-5-methyl-2,5-diazabicyclo[2.2.1]hept-2-yl]carbonyl}-1,2,3,6-tetrahydroazepino [4,5-b]indole-5-carboxylate], in series [1], the EC50 is 100 to 1000 nM and the Emax was above 100%. The solubility (kinetic) at 1.5 h in series [2] was above 10 µM.

Consider `CC(C)OC(=O)C1=CN(C(=O)N2CCCN(C)CC2)CC(C)(C)c2c1[nH]c1ccccc21` [Example 43, 1-methyl 1,1-dimethyl-3-[(4-methyl-1,4-diazepan-1-yl)carbonyl]-1,2,3,6-tetrahydroazepino[4,5-b]indole-5-carboxylate], for which, in series [1], the EC50 is 100 to 1000 nM and the Emax was above 100%. Also, the kinetic solubility at 1.5 h in series [2] was above 10 µM.

Consider `CC(C)OC(=O)C1=CN(C(=O)NC2CCCCC2)CC(C)(C)c2c1[nH]c1ccccc21` [Example 45, 1-methylethyl 3-[(cyclohexylamino)carbonyl]-1,1-dimethyl-1,2,3,6-tetrahydroazepino[4,5-b]indole-5-carboxylate], for which, in series [1], the EC50 is 10 to 100 nM and the Emax is above 100%. For the same molecule, the solubility (kinetic) at 1.5 h in series [2] lay within 1 to 10 µM (≈ 0.424 to 4.24 µg/mL).

For `CC(C)OC(=O)C1=CN(C(=O)N2CCOCC2)CC(C)(C)c2c1[nH]c1ccccc21` [Example 47, 1-methylethyl 1,1-dimethyl-3-(morpholin-4-ylcarbonyl)-1,2,3,6-tetrahydrazepino[4,5-b]indole-5-carboxylate], in series [1], the EC50 is 10 to 100 nM and the Emax was above 100%. Moreover, the solubility (kinetic) at 1.5 h in series [2] is above 10 µM.

On to `CC(C)OC(=O)C1=CN(C(=O)N2CCCC(CN(C)C)C2)CC(C)(C)c2c1[nH]c1ccccc21` (stereo not drawn) [Example 48, 1-methylethyl 3-({3-[(dimethylamino)methyl]piperidin-1-yl}carbonyl)-1,1-dimethyl-1,2,3,6-tetrahydroazepino[4,5-b]indole-5-carboxylate], for which, in series [1], the EC50 fell in the range of 1000 to 10000 nM and the Emax was above 100%. Besides, in series [2], the solubility (kinetic) at 1.5 h was above 10 µM.
